The text below walks through data of article PMC6385118, “Korean Thistle (Cirsium japonicum var. maackii (Maxim.) Matsum.): A Potential Dietary Supplement against Diabetes and Alzheimer’s Disease” (Molecules, 2019).

Assay [1] concerns the target yeast α-glucosidase. The assay can be described thus: In vitro α-glucosidase inhibitory activity assay (p-NPG substrate). It counts as biochemical. As to conditions: for Ki: Dixon plot; for type of α-glucosidase inhibition (in words): Lineweaver-Burk and Dixon plots; for α-Glucosidase Inhibition (%), Mean ± SD: at 100 µM; for IC50: mean ± SD of triplicates. The procedure:
The inhibitory activity against yeast α-glucosidase enzyme was carried out spectrophotometrically in a 96-well micro-plate reader (Molecular Devices, Sunnyvale, CA, USA), using a procedure reported by Li et al. with slight modifications. […] After 15 min of incubation, the reaction was ceased using 80 µL of stop solution (0.2 M sodium carbonate) and absorbance was measured at 405 nm.
(§1) The inhibition constant (Ki) and inhibition mode of α-glucosidase and BACE1 were calculated with Lineweaver-Burk and Dixon plots. […] Each graph was generated using SigmaPlot 12.0 (Systat Software Inc., San Jose, CA, USA) and GraphPad Prism 5 (GraphPad Prism Software, Inc., La Jolla, CA, USA).

Assay [2] has as its target T1, BACE1 (Homo sapiens, UniProt P56817).
T1 construct: purchased PanVera Corp. (Madison, WI, USA)
The assay can be described thus: In vitro BACE1 enzyme assay (FRET kit). It counts as biochemical. The procedure: Each assay was carried out according to the supplied instructions provided by the manufacturer with slight modifications. […] After incubation, the reaction was ceased using 10 µL of BACE1 stop solution and absorbance was measured at 545 nm […] and 585 nm (emission) wavelengths using microplate spectrofluorometer (Spectramax Gemini XPS, Molecular Devices).
as §1

Assay [3] concerns the target T2, human recombinant PTP1B (Homo sapiens, UniProt P18031).
T2 construct: purchased Biomol International, LLP (Plymouth Meeting, PA, USA)
T2 sequence (P18031 1-435): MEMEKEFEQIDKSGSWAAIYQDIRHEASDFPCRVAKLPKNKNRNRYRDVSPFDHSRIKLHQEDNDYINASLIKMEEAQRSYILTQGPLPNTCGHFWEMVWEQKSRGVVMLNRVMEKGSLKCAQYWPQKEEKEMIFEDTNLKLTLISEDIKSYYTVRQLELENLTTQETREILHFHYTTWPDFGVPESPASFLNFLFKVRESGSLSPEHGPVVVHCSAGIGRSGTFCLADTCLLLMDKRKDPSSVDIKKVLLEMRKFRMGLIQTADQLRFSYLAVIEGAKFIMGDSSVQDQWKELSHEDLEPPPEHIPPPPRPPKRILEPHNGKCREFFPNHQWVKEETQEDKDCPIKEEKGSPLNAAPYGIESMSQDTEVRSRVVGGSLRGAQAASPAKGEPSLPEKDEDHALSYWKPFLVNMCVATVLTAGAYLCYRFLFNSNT
The assay can be described thus: In vitro PTP1B inhibitory activity assay (p-NPP substrate). Particulars: mean ± SD of triplicates. It counts as biochemical. How it is done:
The inhibitory activity of the isolated compounds against human recombinant PTP1B was evaluated using p-NPP as a substrate with slight modifications. […] After incubation, the reaction was ceased using 10 µL of stop solution (10 mM sodium hydroxide) and absorbance was measured at 405 nm.

Assay [4] in a line: DPPH radical scavenging activity. As to conditions: for DPPH Inhibition (%), Mean ± SD: at 5 µM; for EC50: mean ± SD of triplicates. How it is done: DPPH radical scavenging activity were carried out using procedures previously described with slight modifications. Shortly, 160 µL of sample solutions/positive control (ascorbic acid) were mixed with 40 µL of DPPH solution and incubated at room temperature for 30 min. After that, absornace were measured at 520 nm using a microplate reader spectrophotometer VERSAmax (Molecular Devices).
(DPPH is a stable violet radical that fades when it is reduced.)

Assay [5] in a line: Peroxynitrite (ONOO−) scavenging activity. As to conditions: for ONOO− Inhibition (%), Mean ± SD: at 5 µM; for EC50: mean ± SD of triplicates. How it is done: Peroxynitrite (ONOO^−) scavenging activity was carried ou with slight modifications. Shortly, 10 µL of sample solutions/positive control (penicillamine) were mixed with rhodamine buffer (pH 7.4) containing 50 mM sodium phosphate dibasic, 50 mM sodium phosphate monobasic, 90 mM sodium chloride, 5 mM potassium chloride, and 100 μM DTPA. The final DHR 123 concentration was 5 µM. The fluorescent intensities were measured after 5 min with/without authentic ONOO^− using a fluorescence microplate reader (Spectramax Gemini XPS, Molecular Devices) at wavelenghts of 485 and 530 nm of excitation and emission, respectively.

Assay [6] can be described thus: Pro-oxidant assay (reducing power). Particulars: ascorbic acid as positive control; Figure 3. How it is done:
The pro-oxidant activity of isolated compounds were assessed with slight modifications. Shortly, 250 µL of sample solutions/positive control (ascorbic acid) dissolved in 0.2 M phosphate buffer (pH 6.6) and 25 µL of 1% potassium ferricyanide […] were incubated at 50 °C for 20 min. After that, an equal volume of 10% trichloroacetic acid was added and then centriguged at 3000 g for 10 min. The supernatant (500 µL) and distilled water (500 µL) was mixed followed by addition of 0.1% ferric chloride (0.1 mL). Immediately, absorbance were measured spectrophotometrically at 700 nm.

The subject of assay [7] is α-glucosidase. As to conditions: cited from earlier work.
Setting [8] is: read-out: BACE1 Inhibition (%), Mean ± SD.

Like-named read-outs stand apart in the source and are kept apart here.

T1 sequence (P56817 46-501): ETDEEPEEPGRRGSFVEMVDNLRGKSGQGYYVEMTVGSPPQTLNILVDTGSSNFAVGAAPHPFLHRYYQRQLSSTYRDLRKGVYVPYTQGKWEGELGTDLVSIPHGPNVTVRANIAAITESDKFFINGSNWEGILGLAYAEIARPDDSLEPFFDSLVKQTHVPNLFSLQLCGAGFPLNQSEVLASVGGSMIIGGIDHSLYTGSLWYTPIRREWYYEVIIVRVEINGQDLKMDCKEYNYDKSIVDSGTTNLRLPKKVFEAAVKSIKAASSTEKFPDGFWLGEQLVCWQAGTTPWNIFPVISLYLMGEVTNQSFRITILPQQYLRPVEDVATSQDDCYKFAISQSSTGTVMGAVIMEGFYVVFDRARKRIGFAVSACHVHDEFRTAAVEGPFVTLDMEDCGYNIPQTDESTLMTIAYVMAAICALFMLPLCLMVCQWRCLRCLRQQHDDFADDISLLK

One may read the Ki as a measure of affinity in units of concentration, obtained from inhibition or displacement. The term IC50 denotes the concentration at which inhibition is half-maximal. In general, inhibition refers to the change of the read-out against control, counted positive when it falls. As usually defined, the EC50 is the concentration that produces a half-maximal response. High values mean lower potency in that assay, low ones higher potency in that assay. For `O=c1cc(-c2ccc(O)c(O)c2)oc2cc(O)cc(O[C@@H]3O[C@H](CO)[C@@H](O)[C@H](O)[C@H]3O)c12` [Luteolin 5-O-β-D-glucopyranoside, luteolin 5-O-β-D-glucopyranoside], in assay [1], the Ki was determined as 272 µM; the “type of α-glucosidase inhibition (in words)” value is “mixed type of inhibition”; the “α-Glucosidase Inhibition (%), Mean ± SD” value was determined as 14.02 ± 1.45 %; the IC50 came out at 270 ± 4.69 µM. For the same compound, in assay [2] (at 100 µM, read-out: BACE1 Inhibition (%), Mean ± SD), the inhibition at 100 µM stood at 17.5 ± 1.65%. This compound also returned an IC50 in assay [2] (mean ± SD of triplicates) of 970 ± 7.83 µM. For the same compound, in assay [3], the IC50 was greater than 400 µM. Moreover, in assay [4], the “DPPH Inhibition (%), Mean ± SD” value was 52.43 ± 0.53 % and the EC50 was 4.76 ± 0.05 µM. Also, in assay [5], the “ONOO− Inhibition (%), Mean ± SD” value is listed as 79.23 ± 4.95 % and the response was half-maximal at 500 ± 30 nM (EC50). Also, the “reducing power (pro-oxidant activity)” value in assay [6] is listed as “higher reducing power”.
With `CC(C)(S)[C@@H](N)C(=O)O` [Penicillamine, penicillamine, reference compound], in assay [5], the “ONOO− Inhibition (%), Mean ± SD” value is listed as 56.57 ± 2.03 % and the EC50 worked out at 2280 ± 20 nM.
`O=c1cc(-c2ccc(O)c(O)c2)oc2cc(O)cc(O)c12` [Luteolin, luteolin] showed a Ki in assay [1] of 52 µM. The “type of α-glucosidase inhibition (in words)” value in assay [1] was “non-competitive”. The “α-Glucosidase Inhibition (%), Mean ± SD” value in assay [1] is reported as 69.12 ± 1.20 %. Besides, the IC50 is 51.3 ± 1.23 µM in assay [1]; greater than 400 µM in assay [3]; 18.6 µM in assay [7] (mixed type inhibition, ref Xu et al. [35]); 45.4 µM in assay [7] (non-competitive inhibition, ref Ha et al. [28]); 46 ± 6 µM in assay [7] (ref Proença et al. [34]); 172 µM in assay [7] (reversible, non-competitive, ref Yan et al. [29]). Further, in assay [1] (ratio of IC50 values), the “potency against α-glucosidase compared with the positive control, acarbose” value was “five-fold more potent”. For the same compound, in assay [2] (Lineweaver-Burk and Dixon plots), the “type of BACE1 inhibition (in words)” value is listed as “non-competitive”. Also, the inhibition at 100 µM in assay [2] (setting [8]) came out at 73.73 ± 0.57%. Also, the “DPPH Inhibition (%), Mean ± SD” value in assay [4] is reported as 76.65 ± 0.73 %. In addition, the EC50 was 3.05 ± 0.06 µM in assay [4] and 860 ± 40 nM in assay [5]. For the same compound, the “ONOO− Inhibition (%), Mean ± SD” value in assay [5] is recorded as 85.21 ± 1.61 %. The “reducing power (pro-oxidant activity)” value in assay [6] is listed as “lower reducing power than positive control ascorbic acid”. Also, the α-glucosidase inhibition percentage in assay [7] (at 200 µM, mixed type (close to non-competitive), ref Tadera et al. [31]) is given as 92%. In addition, the α-glucosidase inhibition in assay [7] (at a concentration of 0.5 mg/mL, ref Kim et al. [32]) is reported as 36%.
Consider `O=C1O[C@H]([C@@H](O)CO)C(O)=C1O` [Ascorbic acid, ascorbic acid, reference compound], for which, in assay [4], the “DPPH Inhibition (%), Mean ± SD” value was determined as 18.72 ± 0.44 % and the EC50 is 21.35 ± 0.09 µM.
Take `O=c1c(O)c(-c2ccc(O)c(O)c2)oc2cc(O)cc(O)c12` [Quercetin, quercetin, reference compound]: in assay [2] (setting [8]), the inhibition at 4.5 µg/mL turned out to be 70 ± 3.91% and the inhibition at 10 µM was 67.6 ± 4.1%.
With `O=c1cc(-c2ccc(O)c(O)c2)oc2cc(O[C@@H]3O[C@H](CO)[C@@H](O)[C@H](O)[C@H]3O)cc(O)c12` [Luteolin 7-O-β-D-glucopyranoside, luteolin 7-O-β-D-glucopyranoside], in assay [1], the Ki stood at 251 µM; the “type of α-glucosidase inhibition (in words)” value is listed as “competitive inhibition”; the “α-Glucosidase Inhibition (%), Mean ± SD” value worked out at 25.53 ± 1.21 %; inhibition was half-maximal at 249 ± 2.56 µM (IC50). For the same compound, in assay [3], the IC50 was greater than 400 µM. For the same compound, in assay [4], the “DPPH Inhibition (%), Mean ± SD” value is listed as 58.97 ± 1.95 % and a half-maximal effect (EC50) was put at 4.79 ± 0.19 µM. In assay [5], the “ONOO− Inhibition (%), Mean ± SD” value was found to be 80.23 ± 4.22 % and the concentration giving a half-maximal response (EC50) came out at 2510 ± 50 nM.
